Experimental data from patent publication US20080287405A1, “Compositions and Methods Relating to Protein Kinase Inhibitors” (priority 2004, published 2008).
Structures can show the parent of a compound that is named as a salt.

What was measured:
bleomycin-injured mice = assay: Murine model of bleomycin-induced pulmonary fibrosis (lung collagen, histology); assay type: in vivo; conditions: 6 mg/kg IP or oral gavage for 21 days
Source text: Mice were given intratracheal bleomycin (BL) or saline (control). […] A) Lungs were harvested on day 14 following bleomycin injury and total lung collagen determined as described in “Methods”. […] B) Representative histopathology (hematoxylin and eosin staining, top panels; Masson's trichrome blue staining for collagen, bottom panels) of the lungs of mice intra-tracheally instilled with saline (control) or bleomycin (BL). […] Lungs were examined at day 14 following bleomycin injury.
Tissue sections were stained (H&E, mag 100×) 21 days following bleomycin and 14 days after treatment with NL-71-101.
B6129F2/J mice were purchased from Jackson Laboratories, Bar Harbor, Me., and housed under specific pathogen free conditions in enclosed filter top cages. Clean food and water was given ad libitum. The mice were handled and maintained using microisolator techniques with daily veterinarian monitoring. […]
Mice were euthanized by CO2 asphyxiation and perfused via the heart with 5 ml of normal saline. […] Following centrifugation, the pellet was resuspended in 1 ml of alkali reagent, vortexed to release the dye into solution, and 100 μl transferred to a microplate and absorbance measured at 540 nm. Values for experimental samples were calculated based on a standard curve of known concentrations of purified rat tail collagen. […]

α-SMA [1] = assay: α-SMA expression in lung fibroblasts isolated from drug-treated bleomycin-injured mice (Western); assay type: in vivo; conditions: 6 mg/kg IP or oral gavage for 21 days
Source text: C57BL/6J mice were given intratracheal (IT) saline or bleomycin on day 1. […] Fibroblasts were isolated from lung explants on day 14 and expanded in in vitro cell culture. Cells were lysed in RIPA buffer at passage 2 and 90% confluency. Cell lysates were subjected to sodium dodecyl sulfate polyacrylamide gel electrophoresis and immunoblotted with antibodies against α-SMA (a marker of myofibroblast differentiation), phospho-S^473 Akt, and phospho-Y^397 FAK.
Fibroblasts were isolated from lung explants on day 14 and expanded in in vitro cell culture, initially in the presence of 10% fetal bovine serum and then in the absence of serum for 24 h. Cell lysates were obtained and subjected to SDS-PAGE and immunoblotted with antibodies against the proteins indicated.
Mice were treated with Gleevec by IP injection (6 mg/kg) or oral gavage (6 mg/kg) for 21 days. Fibroblasts were isolated from lung explants and cell lysates subjected to SDS-PAGE and immunoblotted for α-SMA. Blots were stripped and re-probed for α-tubulin. Additionally, the effects of Gleevec on pro-fibrotic signaling of fibroblasts by TGF-α1. […]
To determine the result of systemic administration of AG1879 in stable modulation of signaling/phenotype of fibroblasts and myofibroblasts in vivo, fibroblasts isolated from lungs of bleomycin injured mice were analyzed. […]

α-SMA [2] = assay: α-SMA expression in normal human lung fibroblasts (IMR-90) ± TGF (Western); assay type: cell-based
Experimental: (§1) Mice were treated with Gleevec by IP injection (6 mg/kg) or oral gavage (6 mg/kg) for 21 days. Fibroblasts were isolated from lung explants and cell lysates subjected to SDS-PAGE and immunoblotted for α-SMA. Blots were stripped and re-probed for α-tubulin. Additionally, the effects of Gleevec on pro-fibrotic signaling of fibroblasts by TGF-α1. Normal human lung fibroblasts (IMR-90) were stimulated ±TGF-â1 (2 ng/ml) Gleevec at the doses indicated for 24 h. Cell lysates were then subjected to SDS-PAGE and immunoblotted for specific antibodies to the proteins shown.
The present invention is not limited to a particular mechanism. Indeed, an understanding of the mechanism is not necessary to practice the present invention. […] Furthermore, these observations emphasize the importance of defining the modulation of fibroblast phenotypes/signaling both in vitro and in vivo.

PKB/Akt [3] = assay: TGF-induced PKB/Akt phosphorylation in normal human lung fibroblasts (IMR-90); assay type: cell-based; conditions: IMR-90, TGF 2 ng/ml, 24 h
Experimental: as §1
(§2) The present invention is not limited to a particular mechanism. Indeed, an understanding of the mechanism is not necessary to practice the present invention.

FAK [4] = assay: TGF-induced FAK phosphorylation in normal human lung fibroblasts (IMR-90); assay type: cell-based; conditions: IMR-90, TGF 2 ng/ml, 24 h
Experimental: as §1, §2

ERK-1/2 MAPK = assay: Baseline ERK-1/2 MAPK phosphorylation in normal human lung fibroblasts (IMR-90); assay type: cell-based; conditions: IMR-90, 24 h, doses indicated in FIG. 9
Experimental: as §1, §2

PKB/Akt [5] = assay: Constitutive PKB/Akt phosphorylation in IPF fibroblasts (Western immunoblot); assay type: cell-based, human; conditions: 16 h prior to cell lysis
Source text: (§3) Cell lysates were then subjected to SDS-PAGE and immunoblotted with specific antibodies against phospho-S^473 Akt and phospho-Y^397 FAK; blots were stripped and re-probed for total Akt and FAK, respectively.
(§4) Research protocols involving human subjects received prior approval by the Institutional Review Board at the University of Michigan. […] Fibroblasts were also isolated from normal-appearing lung tissue sections surgically removed from patients undergoing evaluation for suspected lung cancer. Cells were cultured in medium consisting of Dulbecco's modified Eagle's medium (DMEM; GIBCO, Grand Island, N.Y.) supplemented with 10% fetal bovine serum (FBS; Sigma, St. Louis, Mo.), 100 U/ml penicillin/streptomycin (Sigma, St. Louis Mo.), and fungizone (GIBCO, Grand Island, N.Y.); medium was changed every two days. Passage 3-5 fibroblasts were plated on 60 mm cell culture dishes at a density of 5×10^5 cells/dish and incubated at 37° C. in 5% CO2-95% air. When cells reached 80% confluence, they were growth-arrested for 48 hours in DMEM with 0.01% FBS prior to treatment with/without TGF-β1.
(§5) Porcine-derived TGF-β1 was obtained from R&D Systems, Minneapolis, Minn. All other cell culture reagents were from Sigma, St Louis, Mo. […] Drugs were initially solubilized in DMSO to make a 30 mM “stock” concentration. […]

PKB/Akt [6] = assay: TGF-β1-induced PKB/Akt phosphorylation in normal fibroblasts (Western immunoblot); assay type: cell-based, human; conditions: TGF-β1 2 ng/ml, 10 μM drug co-treated, 16 h
Source text: as §3, §4, §5

FAK [7] = assay: TGF-β1-induced FAK phosphorylation in normal fibroblasts (Western immunoblot); assay type: cell-based, human; conditions: TGF-β1 2 ng/ml, 10 μM drug co-treated, 16 h
Source text: as §3, §4, §5

Structure (SMILES) | efficacy as an anti-fibrotic agent (bleomycin-injured mice) | expression of α-SMA in lung fibroblasts cultured from treated mice (α-SMA [1]) | baseline α-SMA expression (α-SMA [2]; IMR-90, 24 h, no TGF) | TGF-α1-induced α-SMA expression (α-SMA [2]; IMR-90, TGF 2 ng/ml, 24 h) | TGF-α1-induced phosphorylation/activation of PKB/Akt (PKB/Akt [3]) | TGF-α1-induced phosphorylation/activation of FAK (FAK [4]) | baseline phosphorylation of ERK-1/2 MAPK (ERK-1/2 MAPK) | inhibition of constitutive PKB/Akt phosphorylation at 10 μM (PKB/Akt [5]) | inhibition of TGF-β1-induced PKB/Akt phosphorylation (PKB/Akt [6]) | inhibition of TGF-β1-induced FAK phosphorylation (FAK [7])
Cc1ccc(NC(=O)c2ccc(CN3CCN(C)CC3)cc2)cc1Nc1nccc(-c2cccnc2)n1 [Gleevec, imatinib mesylate] | not to be effective | enhanced expression | modest reductions | does not inhibit | promoted/enhanced | promoted/enhanced | dose-dependently enhanced |  |  | 
Nc1ncnc2c1cnn2-c1ccccc1 [c/AG, 4-Amino-7-phenylpyrazol[3,4-d]pyramidine] |  |  |  |  |  |  |  | no effect | no effect | no effect
